Experimental data published in patent US20140235626A1, “PYRIDINE DERIVATIVES AND A PHARMACEUTICAL COMPOSITION FOR INHIBITING BACE1 CONTAINING THEM” (SHIONOGI & CO., LTD., priority 2011, published 2014).
pIC50: −log10 of the molar value. Like-named read-outs stand apart in the source and are kept apart here.

What was measured:
[1] = biological target: T1, CYP3A4 (Homo sapiens, UniProt P08684); test: CYP3A4 fluorescent MBI test; type: in vitro ADME; conditions: substrate 7-BFC; pre-reaction time 0 or 30 minutes; compound 0.625-20 μmol/L
T1 construct: host or cells: Escherichia coli (printed 'Escherichia cob')
Experimental: The CYP3A4 fluorescent MBI test is a test of investigating enhancement of CYP3A4 inhibition of a compound by a metabolism reaction. 7-benzyloxytrifluoromethylcoumarin (7-BFC) is debenzylated by the CYP3A4 enzyme (enzyme expressed in Escherichia cob) and 7-hydroxytrifluoromethylcoumarin (7-HFC) is produced as a fluorescing metabolite. The test is performed using 7-HFC production reaction as an index.
The reaction conditions are as follows: substrate, 5.6 […], 7-BFC; pre-reaction time, 0 or 30 minutes; reaction time, 15 minutes; reaction temperature, 25° C. […]
An enzyme in a K-Pi buffer (pH 7.4) and a compound of the present invention solution as a pre-reaction solution were added to a 96-well plate at the composition of the pre-reaction. […] Fluorescent values of 7-HFC as a metabolite were measured in each index reaction plate with a fluorescent plate reader (Ex=420 nm, Em=535 nm).
The sample adding DMSO to a reaction system instead of compound of the present invention solution is adopted as a control (100%) because DMSO is used as a solvent to dissolve a compound of the present invention. Remaining activity (%) was calculated at each concentration of the compound of the present invention added as the solution, and IC50 was calculated by reverse-presumption by a logistic model using a concentration and an inhibition rate. […]

[2] = biological target: T2, Recombinant human BACE-1 (Homo sapiens, UniProt P56817); test: Assay of BACE-1 inhibiting activity; type: biochemical; conditions: Recombinant human BACE-1 7.4 nmol/L, substrate peptide 18 nmol/L, pH 5.0, 30° C., 3.5 hours; read-out: IC50 value (50% inhibitory concentration against the enzymatic activity)
T2 construct: purchased R&D Systems
Experimental: 48.5 μL of substrate peptide solution (Biotin-XSEVNLDAEFRHDSGC-Eu: X=ε-amino-n-capronic acid, Eu=Europium cryptate) was added to each well of 96-hole half-area plate (a black plate: Costar), and after addition of 0.5 μl of the compound of the present invention (DMSO solution) and 1 μl of Recombinant human BACE-1 (R&D Systems), the reaction mixture was incubated at 30° C. for 3.5 hours. The substrate peptide was synthesized by reacting Cryptate TBPCOOH mono SMP (CIS bio international) with Biotin-XSEVNLDAEFRHDSGC (Peptide Institute, Inc.). The final concentrations of the substrate peptide and Recombinant human BACE-1 were adjusted to 18 nmol/L and 7.4 nmol/L, respectively, and the reaction was performed in sodium acetate buffer (50 mmol/L sodium acetate, pH 5.0, 0.008% Triton X-100).
After the incubation for reaction, 50 μl of 8.0 μg/ml Streptavidin-XL665 (CIS bio international) dissolved in phosphate buffer (150 mmol/L K2HPO4—KH2PO4, pH 7:0, 0.008% Triton X-100, 0.8 mol/L KF) was added to each well and left stand at 30° C. for 45 minutes. After then, fluorescence intensity was measured (excitation wavelength: 320 nm, measuring wavelength: 620 nm and 665 nm) using Wallac 1420 multilabel counter (Perkin Elmer life sciences). Enzymatic activity was determined from counting ratio of each wavelength (10,000×Count 665/Count 620) and 50% inhibitory concentration against the enzymatic activity (IC50) was calculated.

[3] = BA test (oral absorption); type: in vivo, mouse or SD rat; conditions: plasma; from AUCs of oral (1 to 30 mg/kg) and intravenous (0.5 to 10 mg/kg) administration groups
Experimental: Materials and Methods for Studies on Oral Absorption (1) Animal: mouse or SD rat (2) Breeding conditions: mouse or SD rat is allowed free access to the sterilized tap water and the solid food. […] (6) Evaluation items: blood was collected at the scheduled time, and the plasma concentration of the compound of the present invention was measured by LC/MS/MS (7) Statistical analysis: regarding the transition of the plasma concentration of the compound of the present invention, the area under the plasma concentration-time curve (AUC) was calculated by non-linear least squares program WinNonlin (Registered trademark), and the bioavailability (BA) of the compound of the present invention was calculated from the AUCs of the oral administration group and intravenous administration group

[4] = Metabolism stability test; type: in vitro ADME; conditions: pooled human liver microsomes 0.5 mg protein/mL, 1 mmol/L NADPH, 37° C., 30 minutes; 0 minute = 100%
Experimental: Using a commercially available pooled human liver microsomes, a compound of the present invention is reacted for a constant time, a remaining rate is calculated by comparing a reacted sample and an unreacted sample, thereby, a degree of metabolism in liver was assessed.
A reaction was performed (oxidative reaction) at 37° C. for 0 minute or 30 minutes in the presence of 1 mmol/L NADPH in 0.2 mL of a buffer (50 mmol/L Tris-HCl pH 7.4, 150 mmol/L potassium chloride, 10 mmol/L magnesium chloride) containing 0.5 mg protein/mL of human liver microsomes. After the reaction, 50 μL of the reaction solution was added to 100 μL of a methanol/acetonitrile=1/1 (v/v), mixed and centrifuged at 3000 rpm for 15 minutes. The compound of the present invention in the supernatant was quantified by LC/MS/MS, and a remaining amount of the compound of the present invention after the reaction was calculated, letting a compound amount at 0 minute reaction time to be 100%.

[5] = Solubility test (turbidity, JP-I, JP-II); type: physicochemical; conditions: kinetic from dmso stock, 2% DMSO, turbidity after 4 hours
Experimental: A 2-fold dilution series (12 points) of a 10 mM solution of a compound of the present invention in DMSO was added to a medium (JP-I, JP-II) (2%), and solubility was assessed by 3 stages (High; >40 μM, Medium; 3-40 μM, Low; <3 μM) from a turbidity after 4 hours.

T2 sequence (P56817 46-501): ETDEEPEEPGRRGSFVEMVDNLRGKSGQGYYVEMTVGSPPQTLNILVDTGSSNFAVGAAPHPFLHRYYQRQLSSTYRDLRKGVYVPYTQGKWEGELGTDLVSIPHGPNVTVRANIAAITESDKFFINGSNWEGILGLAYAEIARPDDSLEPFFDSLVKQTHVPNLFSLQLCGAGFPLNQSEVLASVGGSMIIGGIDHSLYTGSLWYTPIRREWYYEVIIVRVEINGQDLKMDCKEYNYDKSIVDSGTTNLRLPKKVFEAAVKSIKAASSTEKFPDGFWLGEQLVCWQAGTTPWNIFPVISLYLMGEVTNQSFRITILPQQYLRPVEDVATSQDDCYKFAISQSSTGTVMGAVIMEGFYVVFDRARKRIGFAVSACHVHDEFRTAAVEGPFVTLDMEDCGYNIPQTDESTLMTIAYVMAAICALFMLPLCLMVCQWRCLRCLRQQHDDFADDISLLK
T1 sequence (P08684 whole entry): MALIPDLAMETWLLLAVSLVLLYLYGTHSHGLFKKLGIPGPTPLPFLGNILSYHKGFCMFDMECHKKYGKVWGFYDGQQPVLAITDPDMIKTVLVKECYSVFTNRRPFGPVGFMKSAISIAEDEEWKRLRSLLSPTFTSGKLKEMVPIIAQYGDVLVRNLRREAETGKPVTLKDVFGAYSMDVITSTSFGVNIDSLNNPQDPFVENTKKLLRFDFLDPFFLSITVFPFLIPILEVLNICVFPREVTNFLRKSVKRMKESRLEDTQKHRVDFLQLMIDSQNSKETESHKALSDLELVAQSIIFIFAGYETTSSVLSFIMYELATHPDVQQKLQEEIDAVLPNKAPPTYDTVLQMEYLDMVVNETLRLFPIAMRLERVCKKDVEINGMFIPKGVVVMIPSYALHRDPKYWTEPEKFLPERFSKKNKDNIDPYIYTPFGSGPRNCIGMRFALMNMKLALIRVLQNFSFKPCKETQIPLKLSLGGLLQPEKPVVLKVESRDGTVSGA

Row | pIC50 [2] | SMILES | also measured
1 | ≥ 6.00 | C[C@@]1(c2cc(NC(=O)c3ccc(C#N)cn3)ccn2)CCSC(N)=N1 [Compound I-1] | CYP3A4 MBI: difference between IC50 values with and without preincubation, positive (+) / negative (−) [1]: (−) (When the difference was 3 μM or less, this was defined as negative(−))
2 | 7.48 | C[C@@]1(c2cc(NC(=O)c3cnc(OC(F)F)cn3)ccn2)C=CSC(N)=N1 [Compound I-2] | 
3 | 7.11 | C#Cc1ccc(C(=O)Nc2ccnc([C@]3(C)CCSC(N)=N3)c2)nc1 [Compound I-8] | 
4 | ≥ 6.00 | CC#Cc1ccc(C(=O)Nc2ccnc([C@]3(C)CCSC(N)=N3)c2)nc1 [Compound I-9] | 
5 | ≥ 6.00 | C[C@@]1(c2cc(NC(=O)c3ccc(C#N)cn3)ccn2)C=CSC(N)=N1.O=C(O)C(O)C(O)C(=O)O [Compound I-10] | bioavailability [3]: 96.7%
6 | 7.32 | C=C1C[C@@](C)(c2cc(NC(=O)c3ccc(C(F)F)cn3)ccn2)N=C(N)S1 [Compound I-11] | 
7 |  | CC(F)(F)Oc1ccc(C(=O)Nc2ccnc([C@]3(C)C=CSC(N)=N3)c2)nc1 [Compound I-24] | remaining amount of the compound after the reaction [4]: 98%
8 |  | COc1cnc(C(=O)Nc2ccnc([C@]3(C)C=CSC(N)=N3)c2)cn1 [Compound I-47] | solubility at 4 h ([5]; pH 1.2, simulated gastric fluid, medium JP-I, read-out: Solubility (3 stages) in JP-I): > 40 µM; solubility at 4 h ([5]; pH 6.8, fassgf or other biorelevant, medium JP-II, read-out: Solubility (3 stages) in JP-II): > 40 µM
9 | ≥ 6.00 | NC1=N[C@](CF)(c2cc(NC(=O)c3cnc(C(F)F)cn3)ccn2)CCS1 [Compound I-246] | 
10 | ≥ 6.00 | C[C@@]1(c2cc(NC(=O)c3ccccn3)ccn2)CCSC(N)=N1 [Compound I-272] | 
11 | ≥ 6.00 | C[C@@H]1C[C@@](C)(c2cc(NC(=O)c3ccccn3)ccn2)N=C(N)S1 [Compound I-273] | 
12 | ≥ 6.00 | Cc1cnc(C(=O)Nc2ccnc([C@]3(C)C[C@@H](C)SC(N)=N3)c2)cn1 [Compound I-293] | 
13 | ≥ 6.00 | C[C@@H]1C[C@@](C)(c2cc(NC(=O)c3cnccn3)ccn2)N=C(N)S1 [Compound I-294] | 
